A short description of the assay: Corrosion inhibition efficiency by electrochemical impedance spectroscopy (EIS), three-electrode cell. Particulars: 40° C., 3 hours. Here is the method: Evaluation Using Electrochemical Impedance Spectroscopy (EIS)
The evaluation of corrosion inhibiting properties of the individual structures and binary compositions was carried out in a conventional electrochemical cell (E) with a three electrode arrangement as the one shown in FIG. 1. This cell allows maintaining stirring and constant temperature during development of measurement.
The inhibiting formulations to be evaluated are added in the desired concentration in the test solution (D), whereas a stirring of 2000 rpm and a temperature of 40° C. are maintained. […] The system is maintained under stirring and constant temperature for 3 hours.
After 3 hours, the electrochemical impedance spectrum is obtained in a range of 10 kHz and 10 mHz frequency and the resistance related to corrosion and together with that obtained in an identical experiment but only with the test solution was obtained from this spectrum; the corrosion inhibition efficiency was calculated.

The mark [1] stands for this setting: test water SP1, concentration 50 mg/L.
Where [2] appears, read: test water SP1, concentration 500 mg/L.
[3] abbreviates: test water SP1, concentration 2500 mg/L.

For the molecule `CCCCCCCCCCCCN=Cc1c[nH]cn1` [IMC12, N-[1H-imidazole-(4-methylidene)]-dodecane-1-amine], the Inhibition efficiency % is recorded as 23.1% under setting [1], 80.9% under setting [2] and 95.4% under setting [3].

As for `CCCCCCNCn1nnc2ccccc21` [BZC6, N-(1H-benzotriazole-1-methyl)-hexane-1-amine], the Inhibition efficiency % was 18.2% under setting [1], 35.3% under setting [2] and 73.7% under setting [3].

With `CCCCCCCCCCCCCCN=Cc1c[nH]cn1` [IMC14, N-[1H-imidazole-(4-methylidene)]-tetradecane-1-amine], the Inhibition efficiency % amounted to 19.8% under setting [1], 78.9% under setting [2] and 98.0% under setting [3].

As for `CCCCn1cc[n+](C)c1.[Br-]` [MIMC4, 1-butyl-3-methylimidazolium bromide], the Inhibition efficiency % is, setting by setting: under setting [1], 15.2%; under setting [2], 61.9%; under setting [3], 76.0%.

These data come from US10676829B2, “Corrosion inhibition composition for pipelines, process of elaboration and synthesis” (INSTITUTO MEXICANO DEL PETROLEO, priority 2013, dated 2020).
